Results on two compounds are retold here after US5126336A, “Antibiotic C-3 catechol-substituted cephalosporin compounds, compositions and method of use thereof” (Bristol-Myers Squibb Company, priority 1990, dated 1992).

The subject of one assay is E. coli Juhl. Kind of assay: In vivo antibacterial activity, E. coli Juhl infection. The following applies: mice, im just after bacterial challenge. As for the experimental part: (§1) In vivo antibacterial activity was determined against three bacterial infections (S. aureus Smith, E. coli Juhl and P. aeruginosa A9843A) by intramuscular administration to mice just after the bacterial challenge. PD50 values are summarized in Table 3 in comparsion with the MIC values against the corresponding organisms.

Another assay has as its system E. coli Juhl A15119. Description: MIC, agar dilution. Format: cell-based. The following applies: E. coli Juhl (Table 3). A digest of the protocol:
(§2)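 MICs read after 18 hr at 32° C on Mueller-Hinton agar (pH 7.2) using two-fold serial dilutions and 10^6 cells/ml inoculum. Mouse infection model: intramuscular dosing immediately post-challenge, PD50 derived.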
On the technique in general: In agar dilution the substance is mixed into plates at graded concentrations.

The test system of assay [1] is S. aureus Smith. Description: MIC, agar dilution. Format: cell-based. The following applies: S. aureus Smith (Table 3). A digest of the protocol:
as §2

Assay [2] concerns P. aeruginosa A9843A. Kind of assay: MIC, agar dilution. Format: cell-based. The method, boiled down: as §2
The test system of assay [3] is P. aeruginosa A9843A. Kind of assay: In vivo antibacterial activity, P. aeruginosa A9843A infection. Details: species or system mice. As to the method:
as §1

Assay [4] relates to S. aureus Smith. Kind of assay: In vivo antibacterial activity, S. aureus Smith infection. The note with it: mice, im just after bacterial challenge. As to the method:
as §1

Assay [5] has as its system Gn-III: Ps. aeruginosa (7). Kind of assay: MIC, two-fold serial agar dilution, Gn-III. The note with it: for MIC: Pseudomonas aeruginosa, read-out: Geometric mean of MIC. Format: cell-based. As for the experimental part: (§3) Minimum inhibitory concentrations (MICs) of the present series of cephalosporins were determined against 32 strains of test organisms by two-fold serial agar dilution method in Mueller-Hinton agar. Geometric means of MICs were calculated against six groups of the test organisms which are classified as follows and summarized in Table 1.
Gn-III Ps. aeruginosa (7).

Assay [6] concerns Gn-Ia: Cephalothin(CET)-sensitive E. coli (2), Kl. pneumoniae (1) and Pr. mirabilis (2). Kind of assay: MIC, two-fold serial agar dilution, Gn-Ia. Format: cell-based. The following applies: 5 strains; for MIC: read-out: Geometric mean of MIC. As to the method: as §3
Gn-Ia Cephalothin(CET)-sensitive E. coli (2), Kl.
pneumoniae (1) and Pr. mirabilis (2).

In assay [7] the test system is Gn-Ib: Cephalothin(CET)-resistant E. coli (3) and Kl. pneumoniae (2). Description: MIC, two-fold serial agar dilution, Gn-Ib. The following applies: for MIC: Escherichia coli. Format: cell-based. As for the experimental part:
as §3
Gn-Ib Cephalothin(CET)-resistant E. coli (3) and Kl.

For assay [8], the system named is Gn-II: M.morganii (1), Ent. cloacae (2) and Ser. marcescens (2). Description: MIC, two-fold serial agar dilution, Gn-II. The following applies: for Geometric mean of MIC: Gn-II, 5 strains. It is filed as cell-based. As to the method:
as §3
Gn-II M.morganii (1), Ent. cloacae (2) and Ser.

In assay [9] the test system is Gp-Ib: Penicillin(PC)-resistant S. aureus (5). Description: MIC, two-fold serial agar dilution, Gp-Ib. Format: cell-based. The note with it: 5 strains; for MIC: Staphylococcus aureus, read-out: Geometric mean of MIC. As for the experimental part: as §3
Gp-Ib Penicillin(PC)-resistant S. aureus (5).

Assay [10] concerns Gp-Ia: Penicillin(PC)-sensitive S. aureus (5 strains). Kind of assay: MIC, two-fold serial agar dilution, Gp-Ia. Format: cell-based. The note with it: for MIC: Staphylococcus aureus, read-out: Geometric mean of MIC. As for the experimental part: as §3
Gp-Ia Penicillin(PC)-sensitive S. aureus (5 strains).

Converted amounts (≈) assume the structure as drawn. Like-named read-outs stand apart in the source and are kept apart here.

A word on the MIC: it is the lowest concentration found to suppress growth.

Turning to `CC(C)(O/N=C(\C(=O)NC1C(=O)N2C(C(=O)O)=C(/C=C/Cn3ccc4cc(=O)c(O)cc-4c3)CS[C@H]12)c1csc(N)n1)C(=O)O` (stereo partly drawn) [Iv, 7-[(Z)-2-(2-Aminothiazol-4-yl)-2-(1-carboxy-1-methylethoxyimino)acetamido]-3-[(E)-3-(2,6-dihydro-7-hydroxy-6-oxo-isoquinolin-2-yl)-1-propen-1-yl]-3-cephem-4-carboxylic acid], the ED50 stood at 0.019 mg/kg with E. coli Juhl (Escherichia coli, read-out: PD50); 0.17 mg/kg with P. aeruginosa A9843A [3] (Pseudomonas aeruginosa, A9843A, in Mus musculus, im, read-out: PD50); 0.98 mg/kg with S. aureus Smith [4] (Staphylococcus aureus, read-out: PD50). Moreover, the MIC in the assay with E. coli Juhl A15119 (Escherichia coli, JUHLA15119, 18 h, read-out: MIC) came to 0.1 µg/mL (≈ 0.153 µM); with S. aureus Smith [1] (Staphylococcus aureus, 18 h, read-out: MIC), 12.5 µg/mL (≈ 19.1 µM); against P. aeruginosa A9843A [2] (Pseudomonas aeruginosa, A9843A, 18 h), 0.1 µg/mL (≈ 0.153 µM); in [5], 0.11 µg/mL (≈ 0.168 µM); in assay [5] (second run, Gn-III, 7 strains) it was 0.15 µg/mL (≈ 0.229 µM); in [6] (Mueller-Hinton agar), 0.017 µg/mL (≈ 0.026 µM). For the same compound, the MIC was 0.0094 µg/mL (≈ 0.0144 µM) in [6] (second run); 0.0072 µg/mL (≈ 0.011 µM) in assay [7] (read-out: Geometric mean of MIC, Gn-Ib, 5 strains, Mueller-Hinton agar); 0.0083 µg/mL (≈ 0.0127 µM) in assay [7] (read-out: Geometric mean of MIC, second run, Gn-Ib, 5 strains); 0.076 µg/mL (≈ 0.116 µM) in assay [8] (read-out: Geometric mean of MIC); 16 µg/mL (≈ 24.4 µM) in [9] (Mueller-Hinton agar); 16 µg/mL (≈ 24.4 µM) in [9] (second run). For the same compound, the values for the MIC in assay [10] (Mueller-Hinton agar) and in [10] (second run) were 12.5 µg/mL (≈ 19.1 µM) and 16 µg/mL (≈ 24.4 µM), respectively. Further, the “Geometric mean of MIC” value in assay [8] (second run) worked out at 0.076 µg/mL.

`CO/N=C(\C(=O)NC1C(=O)N2C(C(=O)O)=C(/C=C/Cn3ccc4cc(=O)c(O)cc-4c3)CS[C@H]12)c1csc(N)n1` (stereo partly drawn) [Iw, 7-[(Z)-2-(2-Aminothiazol-4-yl)-2-methoxyimino-acetamido]-3-[(E)-3-(2,6-dihydro-7-hydroxy-6-oxo-isoquino-lin-2-yl)-1-propen-1-yl]-3-cephem-4-carboxylic acid]: the PD50 with E. coli Juhl was 0.19 mg/kg; with P. aeruginosa A9843A [3] (mice, im just after bacterial challenge, P. aeruginosa 9843A), 0.39 mg/kg; in the assay on S. aureus Smith [4], 0.18 mg/kg. Besides, the MIC in the assay on E. coli Juhl A15119 worked out at 0.1 µg/mL (≈ 0.172 µM); against S. aureus Smith [1] it was 0.8 µg/mL (≈ 1.37 µM); against P. aeruginosa A9843A [2] (P. aeruginosa 9843A (Table 3)) it was 12.5 µg/mL (≈ 21.5 µM). Moreover, the “Geometric mean of MIC” value in assay [5] (Gn-III, 7 strains, Mueller-Hinton agar) was 13.0 µg/mL; in [6] (Mueller-Hinton agar), 0.015 µg/mL; in assay [7] (Gn-Ib, 5 strains, Mueller-Hinton agar) it was 0.022 µg/mL; in assay [8] (Mueller-Hinton agar), 0.13 µg/mL; in [9] (Mueller-Hinton agar) it was 1.4 µg/mL; in assay [10] (Mueller-Hinton agar), 0.8 µg/mL.
